# Results from patent US10343977B2, “Tetrahydro-isohumulone derivatives, methods of making and using” (KINDEX PHARMACEUTICALS, INC., priority 2012, dated 2019).
# Like-named read-outs stand apart in the source and are kept apart here.
# Key:
# [1] = system: LPS-mediated inflammatory mediators in RAW264.7 and THP-1 cells; test: Mean inhibition across all six inflammatory mediators; type: cell-based; conditions: 12.5 μM test compound
# Protocol: (§1) The effect of the THIAA derivatives on LPS-mediated prostaglandin E2 (PGE2) and nitric oxide (NO) production was evaluated in a RAW264.7 murine macrophage model. The RAW 264.7 cell line was purchased from ATCC (Manassas, Va.) and maintained according to their instructions. Cells were grown and subcultured in 96-well plates at a density of 8×10^4 cells per well, and reached 80-90% confluence the next day. THIAA derivatives were added to the cells in serum-free medium at a final concentration of 0.1% DMSO. Following one hour of incubation with the THIAA derivatives, LPS (1 μg/ml) or DMEM medium alone was added to the cells and incubation was continued for 6 hours. Stimulation of RAW 264.7 cells with LPS (1 μg/ml) for 6 hours activated the production of PGE2 and NO. Supernatant media was collected for measurement of PGE2 levels. For NO, incubations were continued overnight. Supernatant media was collected for measurement of NO levels after 16 hours of stimulation. PGE2 levels were measured using assay kits from Assay Designs, (Ann Arbor, Mich.) and NO levels were measured using assay kits from Cayman Chemicals (Ann Harbor, Mich.).
# (§2) The effect of the THIAA derivatives on LPS-mediated MMP-9, IL-1β, ([…], MCP-1, RANTES, and MIP-1α was evaluated in THP-1 cells. Stimulation of THP-1 cells with LPS (1 μg/ml) activated the production of MMP-9, IL-1β, MCP-1, RANTES, and MIP-1α.
# (§3) Results are summarized in Table 2, with data represented as % inhibition of inflammatory mediator production.
# Mean inhibition across all six inflammatory mediators was calculated for each of the THIAA derivatives.
# [2] = system: LPS-mediated prostaglandin E2 (PGE2) production in RAW264.7 cells; test: LPS-mediated PGE2 production in RAW264.7 murine macrophage model; type: cell-based; conditions: 12.5 μM test compound, LPS 1 μg/ml, NI = no inhibition; for inhibition at 12.5 µM: Mus musculus, RAW264.7, 6 h
# Protocol: (§4) THIAA derivatives synthesized in Examples 1-19 were dissolved in dimethyl sufoxide (DMSO) and stored at −20° C. LPS was purchased from Sigma Chemicals (St. Louis, Miss.).
# as §1, §3
# [3] = system: LPS-mediated RANTES production in THP-1 cells; test: LPS-mediated RANTES production in THP-1 cells; type: cell-based; conditions: Homo sapiens; 12.5 μM test compound; THP-1 cells, LPS 1 μg/ml; NI = no inhibition
# Protocol: as §4, §2, §3
# PPARα = molecular target: T1, PPARα (Homo sapiens, UniProt Q07869); test: PPARα reporter assay (INDIGO Biosciences); type: cell-based; conditions: for Emax at 12.5 µM: read-out: PPARα % GW590735 (20.6 nM)
# T1 sequence (Q07869 1-468): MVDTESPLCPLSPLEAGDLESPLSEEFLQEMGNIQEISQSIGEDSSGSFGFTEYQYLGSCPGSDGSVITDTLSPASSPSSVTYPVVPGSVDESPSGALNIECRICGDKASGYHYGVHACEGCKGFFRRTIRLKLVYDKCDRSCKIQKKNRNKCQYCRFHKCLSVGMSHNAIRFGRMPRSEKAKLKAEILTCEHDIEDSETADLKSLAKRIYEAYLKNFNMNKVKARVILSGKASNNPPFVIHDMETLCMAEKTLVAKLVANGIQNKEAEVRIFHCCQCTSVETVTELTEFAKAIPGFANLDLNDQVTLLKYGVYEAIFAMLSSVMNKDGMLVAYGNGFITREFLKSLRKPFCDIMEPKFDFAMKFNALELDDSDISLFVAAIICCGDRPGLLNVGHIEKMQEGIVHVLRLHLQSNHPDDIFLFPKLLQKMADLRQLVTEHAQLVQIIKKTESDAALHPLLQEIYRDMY
# Protocol: (§5) The functional effect of THIAA derivatives on PPARα and PPARγ activity was evaluated using a PPAR reporter assay (INDIGO Biosciences, Pa.). This assay utilizes non-human mammalian cells engineered to provide constitutive high level expression of PPARα, or PPARγ and containing a luciferase report gene specific to the appropriate PPAR. Following activation by agonist binding, PPAR induces expression of the luciferase reporter gene. Luciferase activity therefore provides a surrogate for measuring PPAR activity in agonist-treated cells.
# (§6) 0.1% DMSO was used as a solvent control for each assay. Plates were incubated for 20 hours in a humidified incubator at 37° C. and 5% CO2. After incubation, the cell medium was discarded and the cells were treated with 100 μL of luciferase detection reagent for 15 minutes. Plates were analyzed using a luminometer (Victor2, Perkin Elmer). Average relative light unit (RLU) and standard deviation were measured.
# [4] = system: LPS-mediated nitric oxide (NO) production in RAW264.7 cells; test: LPS-mediated NO production in RAW264.7 murine macrophage model; type: cell-based; conditions: Mus musculus, 12.5 μM test compound, LPS 1 μg/ml, NI = no inhibition
# Protocol: as §4, §1, §3
# [5] = system: LPS-mediated MIP-1α production in THP-1 cells; test: LPS-mediated MIP-1α production in THP-1 cells; type: cell-based; conditions: Homo sapiens; 12.5 μM test compound; THP-1 cells, LPS 1 μg/ml; NI = no inhibition
# Protocol: as §4, §2, §3
# [6] = system: LPS-mediated IL-6 production in THP-1 cells; test: LPS-mediated IL-6 production in THP-1 cells; type: cell-based; conditions: Homo sapiens; 12.5 μM test compound; THP-1 cells, LPS 1 μg/ml; NI = no inhibition
# Protocol: as §4, §2, §3
# [7] = system: LPS-mediated MCP-1 production in THP-1 cells; test: LPS-mediated MCP-1 production in THP-1 cells; type: cell-based; conditions: Homo sapiens; 12.5 μM test compound; THP-1 cells, LPS 1 μg/ml; NI = no inhibition
# Protocol: as §4, §2, §3
# PPARγ = molecular target: T2, PPARγ (Homo sapiens, UniProt P37231); test: PPARγ reporter assay (INDIGO Biosciences); type: cell-based; conditions: 20 h
# T2 sequence (P37231 1-505): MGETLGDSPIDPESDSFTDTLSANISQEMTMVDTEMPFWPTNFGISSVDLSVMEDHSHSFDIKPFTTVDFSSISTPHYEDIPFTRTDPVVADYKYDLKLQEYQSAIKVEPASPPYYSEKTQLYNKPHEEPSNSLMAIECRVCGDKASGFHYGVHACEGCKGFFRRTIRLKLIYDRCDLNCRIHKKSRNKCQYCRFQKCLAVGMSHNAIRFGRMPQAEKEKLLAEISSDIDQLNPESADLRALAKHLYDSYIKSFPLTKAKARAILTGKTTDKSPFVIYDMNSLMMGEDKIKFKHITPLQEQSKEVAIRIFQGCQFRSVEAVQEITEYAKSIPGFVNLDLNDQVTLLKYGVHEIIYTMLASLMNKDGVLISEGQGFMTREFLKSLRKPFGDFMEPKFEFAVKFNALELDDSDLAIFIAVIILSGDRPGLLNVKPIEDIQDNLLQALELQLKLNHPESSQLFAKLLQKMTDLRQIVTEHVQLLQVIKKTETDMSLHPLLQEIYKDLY
# Protocol: as §5, §6
# [8] = 12.5 μM test compound, luciferase reporter cells, 20 hours, activity compared to GW590735
# [9] = read-out: PPARγ % rosiglitazone (500 nM), 12.5 μM test compound, luciferase reporter cells, 20 hours, activity compared to rosiglitazone
melting point [°C],PPARα % GW590735 (20.6 nM) (PPARα; [8]),Emax at 12.5 µM (PPARα; [8]) [%],Emax at 12.5 µM (PPARγ; [9]) [%],SMILES,inhibition at 12.5 µM [1] [%],inhibition at 12.5 µM [2] [%],inhibition at 12.5 µM [3] [%],"inhibition at 12.5 µM ([4]; RAW264.7, 16 h) [%]",inhibition at 12.5 µM [5] [%],inhibition at 12.5 µM [6] [%],inhibition at 12.5 µM [7] [%],% inhibition of PGE2 production ([2]; 6 hours),Emax at 12.5 µM (PPARα; 20 h) [%],inhibition at 12.5 µM ([4]; 16 hours) [%],Emax at 12.5 µM (PPARγ; read-out: PPARγ % rosiglitazone (500 nM)) [%]
49 to 50,no effect,< 5,–,"CC(C)CCC(=O)[C@@]1(O)C(O)=C(C(=O)C(C)C)C(=O)[C@@H]1CCC(C)C [KDT100, (4S,5R)-3,4-dihydroxy-5-(3-methylbutyl)-4-(4-methylpentanoyl)-2-(2-methylpropanoyl)cyclopent-2-en-1-one]",< 20,< 0,22,< 0,< 0,< 20,61,–,–,–,–
–,–,< 5,< 5,"CC(C)CCC(=O)[C@@]1(O)C(O)=C(C(=O)CC(C)C)C(=O)[C@H]1CCC(C)C [KDT700, (4S,5S)-3,4-dihydroxy-2-(3-methylbutanoyl)-5-(3-methylbutyl)-4-(4-methylpentanoyl)cyclopent-2-en-1-one]",34,< 20,64,< 0,36,< 20,88,–,–,–,–
–,–,< 5,< 5,"CO/N=C(/CC(C)C)C1=C(O)[C@](O)(C(O)CCC(C)C)[C@@H](CCC(C)C)C1=O (stereo partly drawn) [KDT0005, (4R,5R)-3,4-dihydroxy-4-(1-hydroxy-4-methylpentyl)-2-(N-methoxy-3-methylbutanimidoyl)-5-(3-methylbutyl)cyclopent-2-en-1-one]",< 20,< 0,25,< 0,20,< 20,38,–,–,–,–
–,dual PPARα and PPARγ agonists,40,43,"C#CCCOC(=O)O[C@]1(C(=O)CCC(C)C)C(O)=C(C(=O)CC(C)C)C(=O)[C@@H]1CCC(C)C [KDT0035, but-3-yn-1-yl (1S,5R)-2-hydroxy-3-(3-methylbutanoyl)-5-(3-methylbutyl)-1-(4-methylpentanoyl)-4-oxocyclopent-2-en-1-yl carbonate]",77,89,84,44,82,65,95,–,–,–,–
–,–,< 5,< 5,"CC(C)=CC[C@H]1C(=O)C(C(=O)CC(C)C)=C(O)[C@]1(O)C(=O)/C=C/C(C)(C)O [KDT0040, (4S,5R)-3,4-dihydroxy-4-[(2E)-4-hydroxy-4-methylpent-2-enoyl]-2-(3-methylbutanoyl)-5-(3-methylbut-2-en-1-yl)cyclopent-2-en-1-one]",25,54,18,26,< 0,< 0,53,–,–,–,–
–,–,< 5,< 5,"CC(C)CC[C@H]1C(=O)C(C(=O)CC(C)C)=C(O)[C@]1(O)C(=O)CCC(C)C(=O)O (stereo partly drawn) [KDT0038, 5-[(1S,5R)-1,2-dihydroxy-3-(3-methylbutanoyl)-5-(3-methylbutyl)-4-oxocyclopent-2-en-1-yl]-2-methyl-5-oxopentanoic Acid]",< 20,< 0,< 20,< 0,< 0,< 0,46,–,–,–,–
–,no effect,< 5,≥ 5,"CCCCCCCCCC(=O)O[C@]1(C(=O)CCC(C)C)C(O)=C(C(=O)C(C)C)C(=O)[C@@H]1CCC(C)C [KDT0036, (1S,5R)-2-hydroxy-5-(3-methylbutyl)-1-(4-methylpentanoyl)-3-(2-methylpropanoyl)-4-oxocyclopent-2-en-1-yl decanoate]",73,45,88,97,25,83,98,–,–,–,–
–,–,–,–,"CC(C)CCC(=O)[C@@]1(O)C([O-])=C(C(=O)CC(C)C)C(=O)[C@@H]1CCC(C)C.[K+] (stereo in doubt) [KDT501, Potassium salt of (+)-KDT500]",48,–,77,–,62,49,77,No inhibition (NI),< 5,23,31
